Earlier results, collected in PMC8969080 (Dalton transactions (Cambridge, England : 2003), 2022).
Read-outs that look alike come from different tables or passages of the source.

Conditions: 1:1 Metal/Ligand, 50 μM

O=C(O)CN(CCN(CC(=O)O)CC(=O)O)CCN(CC(=O)O)CC(=O)O [DTPA, diethylenetriaminepentaacetic acid]
Calculated pM (−log[M]free; M = Cu^2+) (pH 6.6): 9.7 | Calculated pM (−log[M]free; M = Cu^2+) (pH 7.4): 10.7
